Data set [1] in a line: UV-Vis absorption (absorption maximum, extinction coefficient). The class given is physicochemical. The method, then:
(§1) Depending on the basic structure and substitution, the absorption maxima lie in the entire range of visible light, with a focus at 500-530 nm. The compounds show a high Stokes shift in the range of 80 nm. The absorption is measured, for example, at 25° C. in aqueous or ethanolic solutions with an extinction of 1.0 using a Specord 205 from Analytik Jena, wherein the aqueous solutions are preferably phosphate-buffered salt solutions (PBS buffer; approx. 100 mM sodium chloride and 100 mM total phosphate) and have a pH of 7.5. For example, the emission is measured at 25° C. in dilute aqueous or ethanolic solutions with an extinction of 0.1 using a FP-6600 spectrofluorometer from Jasco, wherein the dilute aqueous solutions are preferably phosphate-buffered salt solutions (PBS buffer; about 100 mM sodium chloride and 100 mM total phosphate) and have a pH of 7.5.

A short description of data set [2]: Fluorescence emission (emission maximum). The data set is classed as physicochemical. The procedure:
as §1

Molecules are shown by their SMILES. Values joined by “and” are separate entries in the source; they are usually repeats but may differ in a detail not shown here. Identical values can stand only once.

With `CCN(CCCCCC(=O)O)c1ccc2cc3c([o+]c2c1)C=C(Nc1ccc(N)cc1)CC3(C)C.[Cl-]` [Compound 27, 6-[[6-(4-aminoanilino)-8,8-dimethyl-7H-xanthene-10-ium-3-yl]-ethyl-amino]hexanoic Acid Chloride Salt], in data set [1] (UV-Vis in ethanol), the ε is 35,000 l/mol*cm and the λmax stood at 530 nm. For the same compound, the λem in data set [2] (in ethanol) is reported as 612 nm.
Take `CC1(C)CC(=O)C(S(=O)(=O)[O-])=C2Oc3cc(OCCCCCC(=O)O)ccc3C=C21.[Na+]` [Compound 40, 6-(5-carboxypentoxy)-1,1-dimethyl-3-oxo-2H-xanthene-4-sulfonate Sodium Salt]: the results for the ε in data set [1] (UV-Vis in PBS) and in data set [1] (UV-Vis in ethanol) were 21,000 l/mol*cm and 19,500 l/mol*cm, respectively. Also, the λmax is listed as 407 nm in data set [1] (UV-Vis in PBS) and 403 nm in data set [1] (UV-Vis in ethanol). In addition, the λem in data set [2] (in PBS) amounted to 483 nm; in data set [2] (in ethanol), 487 nm.
As to `CN(C1=Cc2[o+]c3cc(OCCCCCC(=O)O)c(S(=O)(=O)[O-])cc3cc2C(C)(C)C1)c1ccc(S(=O)(=O)[O-])cc1.[Na+]` [Compound 19, 3-(5-carboxypentoxy)-8,8-dimethyl-6-(N-methyl-4-sulfonato-anilino)-7H-xanthene-10-ium-2-sulfonate Sodium Salt], the ε is 16500 L/mol/cm in data set [1] (UV-Vis in PBS) and 18,000 l/mol*cm in data set [1] (UV-Vis in ethanol). Also, the values for the λmax in data set [1] (UV-Vis in PBS) and in data set [1] (UV-Vis in ethanol) were 460 nm and 465 nm, respectively. For the same compound, the λem worked out at 509 nm in data set [2] (in PBS) and 522 nm in data set [2] (in ethanol).
`CC1(C)CC(=O)C=C2Oc3cc(N(CCCCCC(=O)O)CCCS(=O)(=O)[O-])ccc3C=C21.[Na+]` [Compound 37, 3-[5-carboxypentyl-(8,8-dimethyl-6-oxo-7H-xanthene-3-yl)amino]propane-1-sulfonate Sodium Salt]: the ε in data set [1] (UV-Vis in PBS) was 26,000 l/mol*cm; in data set [1] (UV-Vis in ethanol), 27,000 l/mol*cm. Also, the λmax is 454 nm in data set [1] (UV-Vis in PBS) and 439 nm in data set [1] (UV-Vis in ethanol). Besides, the λem in data set [2] (in PBS) came out at 553 nm; in data set [2] (in ethanol), 538 nm.
For the compound `CCN(CCCCCC(=O)O)c1ccc2cc3c([o+]c2c1)C=C(c1ccc(N(C)C)cc1)CC3(C)C.[Cl-]` [Compound 30, 6-[[6-[4-(dimethylamino)phenyl]-8,8-dimethyl-7H-xanthene-10-ium-3-yl]-ethyl-amino]hexanoic Acid Chloride Salt], in data set [1] (UV-Vis in ethanol), the ε is listed as 30,000 l/mol*cm and the λmax was 664 nm. Besides, the λem in data set [2] (in ethanol) is reported as 713 nm.
In the case of `CCN(CC)c1ccc2cc3c([o+]c2c1)C=C(C)CC3(C)C.[Cl-]` [Compound 31], in data set [1] (UV-Vis in ethanol), the ε is given as 9,800 l/mol*cm and the λmax was 538 nm. Further, the λem in data set [2] (in ethanol) turned out to be 628 nm.
In data set [1] (UV-Vis in ethanol), `CCOC1=Cc2[o+]c3cc(N(CC)CC)ccc3cc2C(C)(C)C1.F[B-](F)(F)F` [Compound 2, 6-ethoxy-N,N-diethyl-8,8-dimethyl-7H-xanthene-10-ium-3-amine tetrafluoroborate] came in with a λmax of 531 nm. Besides, in data set [2] (in ethanol), the λem is reported as 605 nm.
As to `CCN(CCCCCC(=O)O)c1ccc2cc3c([o+]c2c1)C=C(Nc1ccccc1)CC3(C)C.[Cl-]` [Compound 13, 6-[(6-anilino-8,8-dimethyl-7H-xanthene-10-ium-3-yl)-ethyl-amino]hexanoic Acid Chloride Salt], the ε in data set [1] (UV-Vis in PBS) was 38,000 l/mol*cm; in data set [1] (UV-Vis in ethanol), 44,000 l/mol*cm. Further, the results for the λmax in data set [1] (UV-Vis in PBS) and in data set [1] (UV-Vis in ethanol) were 526 nm and 532 nm, respectively. Moreover, the λem is recorded as 609 nm in data set [2] (in PBS) and 603 nm in data set [2] (in ethanol).
For `CCN(CCCCCC(=O)O)c1ccc2cc3c([o+]c2c1)C=C(Nc1cccc(N(C)C)c1)CC3(C)C.[Cl-]` [Compound 26, 6-[[6-[3-(dimethylamino)anilino]-8,8-dimethyl-7H-xanthene-10-ium-3-yl]-ethyl-amino]hexanoic Acid Chloride Salt], in data set [1] (UV-Vis in ethanol), the ε is 34,000 l/mol*cm and the λmax was found to be 531 nm. Also, the λem in data set [2] (in ethanol) is given as 573 nm.
On to `CCN(CC)c1ccc2c(c1)OC1=Cc3[o+]c4cc(N(CC)CC)ccc4c(-c4ccccc4C(=O)O)c3C(C)(C)C1=C2.[Cl-]` [Compound 46, 2-[3,9-bis(diethylamino)-13,13-dimethyl-chromeno[3,2-b]xanthene-5-ium-14-yl]benzoic Acid Chloride Salt], for which the ε in data set [1] (UV-Vis in PBS) was 42000 L/mol/cm; in data set [1] (UV-Vis in ethanol), 60,000 l/mol*cm. The λmax in data set [1] (UV-Vis in PBS) stood at 663 nm; in data set [1] (UV-Vis in ethanol), 664 nm. The λem is recorded as 711 nm in data set [2] (in PBS) and 710 nm in data set [2] (in ethanol).
Take `CCN(CCCCCC(=O)O)c1ccc2cc3c([o+]c2c1)C=C(Nc1ccc2cc(S(=O)(=O)[O-])ccc2c1)CC3(C)C` [Compound 15, 6-[[6-[5-carboxypentyl(ethyl)amino]-1,1-dimethyl-2H-xanthene-10-ium-3-yl]amino]naphthalene-2-sulfonate]: in data set [1] (UV-Vis in ethanol), the ε is 32,000 l/mol*cm and the λmax is reported as 546 nm. The λem in data set [2] (in ethanol) was found to be 619 nm.
The matching figures for `CCN(CCCCCC(=O)O)c1ccc2cc3c([o+]c2c1)C=C(/C=C1\C=CC=CN1)CC3(C)C.[Cl-]` [Compound 29, 6-[[8,8-dimethyl-6-[(E)-1H-pyridine-2-ylidenemethyl]-7H-xanthene-10-ium-3-yl]-ethyl-amino]hexanoic Acid Chloride Salt]: 24,000 l/mol*cm, 434 nm and 541 nm.
For `CC1=CC(C)(C)N(CCCCCC(=O)O)c2cc3c(cc21)C=C1C(=C(S(=O)(=O)[O-])C(=O)CC1(C)C)O3.[Na+]` [Compound 42, 1-(5-carboxypentyl)-2,2,4,7,7-pentamethyl-9-oxo-8H-chromeno[3,2-g]quinoline-10-sulfonate Sodium Salt], the ε in data set [1] (UV-Vis in PBS) was 28,000 l/mol*cm; in data set [1] (UV-Vis in ethanol), 30,000 l/mol*cm. Moreover, the λmax in data set [1] (UV-Vis in PBS) worked out at 487 nm; in data set [1] (UV-Vis in ethanol), 473 nm. For the same compound, the λem in data set [2] (in PBS) was 578 nm; in data set [2] (in ethanol), 559 nm.
For the compound `CCN(CCCCCC(=O)O)c1ccc2cc3c([o+]c2c1)C=C(N(Cc1ccccn1)Cc1ccccn1)CC3(C)C.[Cl-]` [Compound 28, 6-[[6-[bis(2-pyridylmethyl)amino]-8,8-dimethyl-7H-xanthene-10-ium-3-yl]-ethyl-amino]hexanoic Acid Chloride Salt], in data set [1] (UV-Vis in ethanol), the ε is reported as 28,000 l/mol*cm and the λmax came out at 531 nm. Besides, the λem in data set [2] (in ethanol) is 593 nm.
On to `CC1=CC(C)(C)N(CCCS(=O)(=O)[O-])c2cc3[o+]c4c(cc3cc21)C(C)(C)CC(NCCCCCC(=O)O)=C4` [Compound 22, 3-[9-(5-carboxypentylamino)-2,2,4,7,7-pentamethyl-8H-chromeno[3,2-g]quinolin-11-ium-1-yl]propane-1-sulfonate], for which the results for the ε in data set [1] (UV-Vis in PBS) and in data set [1] (UV-Vis in ethanol) were 37500 L/mol/cm and 39,000 l/mol*cm, respectively. The λmax in data set [1] (UV-Vis in PBS) is reported as 516 nm; in data set [1] (UV-Vis in ethanol), 531 nm. The λem in data set [2] (in PBS) is 590 nm; in data set [2] (in ethanol) it was 589 nm.
With `CCN(CC)c1ccc2cc3c([o+]c2c1)C=C(/C=C/C=C1/N(CCCCCC(=O)O)c2ccc(S(=O)(=O)[O-])cc2C1(C)C)CC3(C)C` [Compound 32, (2E)-1-(5-sarboxypentyl)-2-[(E)-3-[6-(diethylamino)-1,1-dimethyl-2H-xantheneium-3-yl]prop-2-enyliden]-3,3-dimethyl-indoline-5-sulfonate], the ε in data set [1] (UV-Vis in PBS) was 75000 L/mol/cm; in data set [1] (UV-Vis in ethanol), 143,600 l/mol*cm. Besides, the λmax was determined as 755 nm in data set [1] (UV-Vis in PBS) and 770 nm in data set [1] (UV-Vis in ethanol). The λem is 788 nm in data set [2] (in PBS) and 795 nm in data set [2] (in ethanol).
Take `CN(C1=Cc2[o+]c3cc(OCCCCCC(=O)O)ccc3cc2C(C)(C)C1)c1ccccc1.[Cl-]` [Compound 18, 6-[[8,8-dimethyl-6-(N-methylanilino)-7H-xanthene-10-ium-3-yl]oxy]hexanoic Acid Chloride Salt]: the λmax in data set [1] (UV-Vis in ethanol) was 452 nm and 469 nm. This compound gave a λem in data set [2] (in ethanol) of 520 nm.
For the compound `CCN(CCCCCC(=O)O)c1ccc2c(c1)OC1=Cc3[o+]c4cc(OC)ccc4cc3C(C)(C)C1=C2.[Cl-]` [Compound 48, 6-[ethyl-(3-methoxy-13,13-dimethyl-chromeno[3,2-b]xanthene-5-ium-9-yl)amino]hexanoic Acid Chloride Salt], in data set [1] (UV-Vis in ethanol), the ε is recorded as 53,000 l/mol*cm and the λmax worked out at 654 nm. This compound also yielded a λem in data set [2] (in ethanol) of 712 nm.
Consider `CCN(CC)c1ccc2c(c1)OC1=CC(=O)CC(C)(C)C1=C2` [Compound 34, 6-(diethylamino)-1,1-dimethyl-2H-xanthene-3-one], for which the ε in data set [1] (UV-Vis in PBS) was 23000 L/mol/cm; in data set [1] (UV-Vis in ethanol) it was 24,800 l/mol*cm. Further, the figures for the λmax in data set [1] (UV-Vis in PBS) and in data set [1] (UV-Vis in ethanol) were 450 nm and 440 nm, respectively. For the same compound, the λem in data set [2] (in PBS) stood at 558 nm; in data set [2] (in ethanol), 540 nm.
With `CCN(CC)c1ccc2c(c1)OC1=C/C(=C/C=C3/C(=O)N(CCCCCC(=O)O)C(=O)N(CCCS(=O)(=O)[O-])C3=O)CC(C)(C)C1=C2.[Na+]` [Compound 33, 3-[(5Z)-3-(5-carboxypentyl)-5-[(2E)-2-[6-(diethylamino)-1,1-dimethyl-2H-xanthene-3-ylidene]ethylidene]-2,4,6-trioxo-hexahydropyrimidin-1-yl]propane-1-sulfonate Sodium Salt], in data set [1] (UV-Vis in ethanol), the ε was 67,000 l/mol*cm and the λmax stood at 683 nm. The same compound yielded a λem in data set [2] (in ethanol) of 719 nm.

Values taken from US20230159484A1, “FLUORESCENT DYES HAVING HIGH STOKES SHIFT, ON THE BASIS OF BRIDGED BENZOPYRYLIUM SALTS” (DYOMICS GmbH, priority 2020, published 2023).
